Tests used:
AMPKα1 and AMPKα2 mRNA = assay: AMPK mRNA analysis in Beas2b cells; type: cell-based, Human; conditions: glucose-free media, 18 h
Method: (§1) FIG. 4. (A) Beas2b cells were cultured in DMEM 2% media with glucose for 24 h before switching to glucose-free media. Cells were then exposed to Compound 12 in a dose dependent manner for 18 h before being collected for immunoblotting. (B) Beas2b cells were cultured in DMEM 2% media with glucose for 24 h before Compound 12 treatment in a dose dependent manner. After 18 h, cells were then collected for immunoblotting. (C) Beas2b cells were cultured in DMEM 2% media with glucose for 24 h before switching to glucose-free media. Cells were then exposed to Compound 12 for 18 h before being collected for mRNA analysis. (D) 50K PBMC cells were cultured in 96 well plates before being exposed to Compound 12 for 4 h. Cells were then treated with LPS (10 ng/ml) for additional 2 h. Media were then collected and IL-1b concentration was determined by ELISA.
(§2) A SAR study was performed by constructing analogs of Compound 1. […] Compound 12 was further tested in PBMCs. Briefly, PBMCs were treated with Compound 12 at various concentrations for 4 h before exposure to LPS (10 ng/ml) for 2 h.

mice [1] = assay: Cecal ligation and puncture (CLP)-induced sepsis model; type: in vivo; conditions: 10 mg/kg i.p., 24 h
Method: FIG. 6. Mice were anesthetized prior to the cecal ligation and puncture (CLP) procedure. Compound 12 (10 mg/kg) was then administered immediately afterwards through an intraperitoneal (i.p.) injection. After 24 h, mice were euthanized and blood was collected for assays of IL-6, TNF, and IL1-β levels. Peritoneal fluid was obtained for determination of bacterial counts after CLP in mice. The lungs were also lavaged with saline, harvested, and then homogenized. Lavage cytokine secretion (C-E), protein (A), cell counts (B) were measured. The data represent n=4-5 mice/group, *P<0.05 Compound 12 versus vehicle. Presence of AMPK and pAMPK was also determined (F).
Compound 12 was examined in a model of cecal ligation and puncture (CLP)-induced sepsis.

mice [2] = assay: Pseudomonas (PA103) pneumonia model; type: in vivo; conditions: 2 or 10 mg/kg i.p., PA103 i.t., 18 h
Method: FIG. 7. Compound 12 (2 or 10 mg/kg) was administered to mice though an i.p. injection, and mice were immediately challenged with P. aeruginosa (strain PA103, 1.5*10^4 cfu/mouse, i.t.) or without (control, CON) for an additional 18 h. Mice were then euthanized and lungs were lavaged with saline, harvested, and then homogenized. Lavage protein, cell counts, bacterial count and cytokine secretions (A-C) were measured. Lungs were homogenized before being assayed by immunoblotting. The data are representative of data from n=5-6 mice/group, *P<0.05 versus vehicle.
Compound 12 was tested in two pneumonia model using Pseudomonas or LPS endotoxin.

PBMC cells [3] = assay: LPS-induced cytokine release from PBMCs (ELISA); type: cell-based
Method: as §1
(§3) FIG. 10. (A) 50K PBMC cells were cultured in 96 well plates before being exposed to Compound 23 for 18 h. Cells were then treated with LPS (10 ng/ml) for additional 4 h. Media were then collected and TNF and IL-1b concentration were determined by ELISA. (B) PBMC cells (1 mL at 1.0×10^6/ml) were treated with Compound 23 (5 μM) for 18 h. Cells were then treated with 100 ng/ml LPS for 4 h. Cytokine release was monitored by the human cytokine array (R&D systems). The results from a cytokine array dot blot were quantitated and graphed.
as §2
(§4) Compound 23 was tested in in vitro inflammatory assays. 50K PBMC cells were cultured in 96 well plates before being exposed to Compound 23 for 18 h. Cells were then treated with LPS (10 ng/ml) for additional 4 h. Media were then collected and assayed for TNF and IL-1b. […] Cytokine arrays were used to profile which cyotokine/chemokines were regulated by Compound 23.

Diet-induced obese mice = assay: Hyperinsulinemic euglycemic clamp study; type: in vivo; conditions: BC1618 20 mg/kg twice
Method: FIG. 30. Diet-induced obese mice were dosed 1× with vehicle or BC1618 (20 mg/kg) prior to overnight fast, followed by a 1× (20 mg/kg) morning dose prior to hyperinsulinemic euglycemic clamp. Body weight measurements are shown.
FIG. 31. From the same study as in FIG. 30, fasting plasma glucose and glucose infusion rate values are shown.
FIG. 32. From the same study as in FIG. 30, glucose infusion rate values are shown.
Diet-induced obese mice were dosed 1× with vehicle or BC1618 (20 mg/kg) prior to overnight fast, followed by a 1× (20 mg/kg) morning dose prior to hyperinsulinemic euglycemic clamp. […] Plasma glucose levels were matched during the clamp (FIG. 31, upper portion). The glucose infusion rate (GIR) required to maintain euglycemia in the 1618 treated mice was approximately 2-fold greater than VEH treated mice (FIG. 31, lower portion and average over last 40 min in FIG. 32, P<0.001), indicating improved whole-body insulin sensitivity.

PBMC cells [4] = assay: Cytokine array of LPS-treated PBMC cells; type: cell-based, human; conditions: 5 μM 18 h, then LPS 100 ng/ml 4 h
Method: as §3, §4

[5] = tested on: High-fat diet fed C57BL6J mice; assay: Acute oral dosing study in high-fat diet fed mice; type: in vivo
[6] = compound 18 h, then LPS 10 ng/ml 4 h

Row | SMILES | mRNA levels of both AMPKα1 and AMPKα2 (AMPKα1 and AMPKα2 mRNA) | CLP-induced lung injury (BAL cytokines, protein and cell counts) (mice [1]) | CLP-induced secretion of circulating proinflammatory cytokines (IL-6, TNF, IL1-β) (mice [1]) | bacterial count (mice [1]; peritoneal fluid) | lavage bacterial counts (mice [2]) | lavage cell counts (mice [2]) | lavage protein concentration (mice [2]) | lavage proinflammatory cytokines (mice [2]; dose dependent) | pAMPK levels within the lung tissue (mice [2]; immunoblotting) | LPS induced IL-1 release from PBMCs (PBMC cells [3]; compound 4 h, then LPS 10 ng/ml 2 h) | body weight prior to clamp (Diet-induced obese mice) | glucose infusion rate (GIR) required to maintain euglycemia, relative to VEH treated mice (Diet-induced obese mice; P<0.001) | fasting plasma glucose (Diet-induced obese mice; before clamp, vehicle 111±3, P=0.12) [mg/dL] | cytokines/chemokines regulated (cytokine array) (PBMC cells [4]) | glucose tolerance (intraperitoneal glucose tolerance test) ([5]; 1 g/kg body weight glucose, data not shown) | body weight at the time of study ([5]; two oral doses (AICAR 200 mg/kg, BC1618 20 mg/kg)) | reduction of fasting plasma glucose compared to vehicle ([5]; two oral doses (AICAR 200 mg/kg, BC1618 20 mg/kg), 2 h after second dose, P=0.08) [%] | IL-1b in media (PBMC cells [3]; [6]) | TNF in media (PBMC cells [3]; [6])
1 | OC(COc1ccc(F)cc1)CN(Cc1ccccc1)Cc1ccccc1 (stereo not shown) [Compound 12] | effectively decreased | effectively reduce severities | significantly attenuated | without affecting bacterial count | without affecting lavage bacterial counts | substantially decreased | substantially decreased | effectively reduces | drastically increasing | potently inhibit | – | – | – | – | – | – | – | – | –
2 | OC(COc1ccc(C(F)(F)F)cc1)CN(Cc1ccccc1)Cc1ccccc1 (stereo not shown) [Compound 23] | – | – | – | – | – | – | – | – | – | – | no difference in body weight | approximately 2 fold | 100 ± 6 | decreases CD40, GMCSF, IL-1b, IL-1ra, IL-2, IL-12, IL-13, ITAC and TNF | no difference in glucose tolerance | no differences in body weight | 25 | dose dependently decreased | dose dependently decreased

From patent US11673853B2, “Small molecule AMPK activators” (University of Pittsburgh—Of the Commonwealth System of …, priority 2016, dated 2023)
